From patent US20050267166A1, “Continuous dosing regimen” (priority 2004, published 2005)
Marks after values point to notes of the source that are not given here.

Assays:
[1] = dose limiting toxicity in cancer subjects, single dose and 5-day repeated dose; format: in vivo, human
Method: (§1) (2-((4-hydroxyphenyl)amino)pyrid-3-yl)-4-methoxybenzenesulfonamide was evaluated in 57 cancer subjects in single dose (16 subjects) and 5-day repeated dose regimens (41 subjects). The doses administered in the single dose segment were 80 to 480 mg/m^2/day. In the 5-day repeated dose regimen (2-((4-hydroxyphenyl)amino)pyrid-3-yl)-4-methoxybenzenesulfonamide was given at 30 to 240 mg/m^2/day for a single cycle. […] Adverse drug reactions from the single dose and 5-day repeated dose segments included nausea and vomiting, diarrhea, epigastric pain, ileus and evidence of peripheral neuropathy. For the single dose segment, the dose limiting toxicity (DLT) was Grade 3 peripheral neuropathy in 1 of 5 subjects at 480 mg/m^2/day. In the 5-day repeated dose regimen the dose limiting toxicities were Grade 3 peripheral neuropathy in 1 of 4 subjects at 210 mg/m^2/day and Grade 4 intestinal paralysis in 1 of 4 subjects at 210 mg/m^2/day and in 1 of 6 subjects at 240 mg/m^2/day.

[2] = test system: LC-11 lung cancer; experiment: human tumor xenograft in nude mice, LC-11; format: in vivo; conditions: Q1D × 8, 150 mg/kg/day
[3] = test system: HT-1376 bladder; experiment: HT-1376 orthotopic tumor model; format: in vivo, human; conditions: d 1-5, 11-15
[4] = pharmacokinetics in cancer subjects, single dose and 5-day repeated dose; format: in vivo, human
Method: as §1

[5] = test system: LX-1 lung cancer; experiment: human tumor xenograft in nude mice, LX-1; format: in vivo; conditions: Q1D × 20, 120 mg/kg/day
[6] = test system: C26 colon tumors; experiment: C26 colon tumors grown in the flank of CDF-1 mice; format: in vivo
[7] = adverse side effects reported in 134 patients; format: in vivo, human; conditions: of 134 patients; 200-300 mg QD, 125-175 mg BID
Method: For 134 patients tested, at doses of about 200 mg QD, 250 mg QD, 300 mg QD, 125 mg BID, 150 mg BID, and 175 mg BID, 16 reported anemia, of which 11 were Grades I or II and 5 were Grades (III or IV); 1 reported Grade I or II alpoecia; 8 reported Grade I or II neutropenia; and none reported fluid retention, for which Grade I is defined as mild, Grade II is defined as moderate, Grade III is defined as severe, Grade IV is defined as life threatening.

[8] = test system: SC-2 gastric cancer; experiment: human tumor xenograft in nude mice, SC-2; format: in vivo; conditions: Q1D × 19, 120 mg/kg/day
[9] = test system: H-154 gastric cancer; experiment: human tumor xenograft in nude mice, H-154; format: in vivo; conditions: Q5D × 5, 300 mg/kg/day
[10] = test system: Calu-6 lung carcinoma; experiment: Calu-6 NSCL flank xenograft model (staged); format: in vivo, human
Method: Following inoculation of tumor cells, tumors were passaged three times in mice before using the fragments to generate single cell suspensions. Multiple animals were used as donors. Single cell suspensions were generated by homogenizing the minced tumor tissue in RPMI 1640 media. Cell suspensions were washed three times to remove debris and other foreign materials. Viable cells were counted by trypan blue exclusion technique using a hemocytometer. Mice were injected subcutaneously with 0.5 mL of the cell suspension containing 1×10^6 cells.
On day 10, mice bearing established tumors were size matched and grouped at about 233 mm^3.

[11] = test system: LC-376 lung cancer; experiment: human tumor xenograft in nude mice, LC-376; format: in vivo; conditions: Q5D × 5, 300 mg/kg/day
[12] = 5-day repeated dose, 210 mg/m^2/day
[13] = oral 75 mg/kg/d QD, d 10-14, 20-24

## COc1ccc(S(=O)(=O)Nc2cccnc2Nc2ccc(O)cc2)cc1 [ABT-751, N-(2-((4-hydroxyphenyl)amino)pyrid-3-yl)-4-methoxybenzenesulfonamide]
[1]; [12]
  dose limiting toxicity: Grade 3 peripheral neuropathy, subjects affected: 1 of 4
  dose limiting toxicity: Grade 4 intestinal paralysis, subjects affected: 1 of 4
[1]; 5-day repeated dose, 240 mg/m^2/day
  dose limiting toxicity: Grade 4 intestinal paralysis, subjects affected: 1 of 6
[1]; single dose, 480 mg/m^2/day
  dose limiting toxicity: Grade 3 peripheral neuropathy, subjects affected: 1 of 5
[2]
  T/C (%): 93%
[3]; oral 100 mg/kg/d QD
  % T/C: 63%
[3]; oral 100 mg/kg/d b.i.d.
  % T/C: 86^e %
[4]; human, plasma, cancer subjects, single dose and 5-day repeated dose, read-out: elimination half-life
  half-life: 4 to 16 h
[4]; range of 30 to 480 mg/m^2/day
  AUC versus dose: increased proportionally with dose
[5]
  T/C (%): 37%
[6]; 5-day schedule
  antitumor activity against C26 colon tumors: only marginally active
[6]; extended dosing
  antitumor activity against C26 colon tumors: significant antitumor response
[7]
  patients reporting Grade I or II alopecia: 1
  patients reporting Grade I or II neutropenia: 8
  patients reporting anemia: 16
  patients reporting anemia Grades I or II: 11
  patients reporting anemia Grades III or IV: 5
  patients reporting fluid retention: none
[8]
  T/C (%): 28%
[9]
  T/C (%): 71%
[10]; 100 and 75 mg/kg/day, (5 day on/5 day off)×2
  antitumor activity as single agent: significant antitumor activity
[10]; in combination with cisplatin
  response in combination with cisplatin: greater than additive responses
[10]; oral 50 mg/kg/d QD, d 1-21
  % T/C: 54%
[10]; [13]
  % ILS: 58%
  % T/C: 50%
[10]; oral 100 mg/kg/d QD, d 10-14, 20-24
  % T/C: 37%
[11]
  T/C (%): 18%
